Consider one compound from patent publication US20110177541A1, “METHOD FOR ADJUSTING THE COAGULATION TIME IN CALIBRATOR OR CONTROL PLASMAS” (DIAGNOSTICA STAGO, priority 2010, published 2011).

This experiment deals with plasma coagulation time (PT). Briefly: Prothrombin time (PT) in STA NeoCl+ on treated (defrosted, pooled, excipient-supplemented, filtered) plasma. The class given is biochemical. The procedure: The plasma bags were defrosted at 37° C.±2° C. in a defroster; once defrosted, the plasma was stabilized at 37° C.±2° C. for 30 minutes.
The bags were then pooled in a stainless steel container and the plasma was then homogenized using a magnetic stirrer.
The lyophilization excipients (lactose, saccharose, HEPES buffer) were added, stirring until dissolution was complete.
A sample was taken to measure the pH, the conductivity and to determine the PT on a STA Neo Cl+ apparatus using STA-R (Diagnostica STAGO).
The plasma was filtered on a CRK1 cartridge (Millipore) and a sample was taken to determine the PT in the NeoCl+ after filtration. […]
A sample of each point was tested in the STA NeoCl+; a range resulting from the addition of different concentrations of F VIIa was produced for each level as a function of the coagulation times obtained.
For each point, the concentration of added factor VIIa was determined as a function of the times on a reference graph obtained for fresh plasmas.
The F VIIa was then added, and homogenized and a sample of each point was taken in order to measure the pH, the conductivity and to determine the PT in the STA NeoCl+ using STA-R to verify that the desired times were indeed obtained, then each product was distributed and lyophilized.
In the table below, a range for procoagulant factor F VIIa has been produced for a range of concentrations of rivaroxaban.

Turning to `O=C(NC[C@H]1CN(c2ccc(N3CCOCC3=O)cc2)C(=O)O1)c1ccc(Cl)s1` [rivaroxaban], where the note is “500 ng/mL of rivaroxaban, FIG. 1”, the “PT divergence of treated plasma with respect to fresh plasma” value was found to be 13 s. The “Time in NeoCl+” value (rivaroxaban 25 ng/mL, FVIIa 0 IU/mL) came out at 14.4 s; the “Time in NeoCl+” value (rivaroxaban 25 ng/mL, FVIIa 0.1 IU/mL) turned out to be 13.7 s; the “Time in NeoCl+” value (rivaroxaban 50 ng/mL, FVIIa 0 IU/mL) was 15.3 s; the “Time in NeoCl+” value (rivaroxaban 50 ng/mL, FVIIa 0.2 IU/mL) stood at 14.3 s; the “Time in NeoCl+” value (rivaroxaban 50 ng/mL, FVIIa 0.3 IU/mL) turned out to be 14.6 s; the “Time in NeoCl+” value (rivaroxaban 50 ng/mL, FVIIa 0.4 IU/mL) worked out at 14.6 s. Besides, the “Time in NeoCl+” value by setting is: (rivaroxaban 200 ng/mL, FVIIa 0 IU/mL) 21.2 s; (rivaroxaban 200 ng/mL, FVIIa 0.1 IU/mL) 19.8 s; (rivaroxaban 200 ng/mL, FVIIa 0.2 IU/mL) 19 s; (rivaroxaban 250 ng/mL, FVIIa 0 IU/mL) 23.5 s; (rivaroxaban 250 ng/mL, FVIIa 0.2 IU/mL) 21 s; (rivaroxaban 250 ng/mL, FVIIa 0.3 IU/mL) 20.3 s. The “Time in NeoCl+” value reads like this: (rivaroxaban 250 ng/mL, FVIIa 0.4 IU/mL) 19.9 s; (rivaroxaban 500 ng/mL, FVIIa 0 IU/mL) 32 s; (rivaroxaban 500 ng/mL, FVIIa 0.1 IU/mL) 29.9 s; (rivaroxaban 500 ng/mL, FVIIa 0.2 IU/mL) 28.4 s; (rivaroxaban 500 ng/mL, FVIIa 0.3 IU/mL) 27.5 s; (rivaroxaban 500 ng/mL, FVIIa 0.4 IU/mL) 26.8 s. Moreover, the “Time in NeoCl+” value reads like this: (rivaroxaban 800 ng/mL, FVIIa 0 IU/mL) 43.5 s; (rivaroxaban 800 ng/mL, FVIIa 0.2 IU/mL) 38.3 s; (rivaroxaban 800 ng/mL, FVIIa 0.3 IU/mL) 36.6 s.
